Results from ChEMBL document CHEMBL1201862, “PubChem BioAssay data set” (2004).
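Briefly, cells in 96-well plates were exposed to five compound concentrations for 48 h, and endpoints were estimated by linear interpolation. Here, GI50 denotes the concentration required for 50% inhibition of growth.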 Activity calls are given as the source filed them. Rule as the data show it: active = GI50 up to about 1.1 µM and inactive = higher.

Experiments:
Experiment in all cases: DTP human tumour cell line panel, 48 h
[1] = tested on: A549
[2] = tested on: CCRF-CEM
[3] = tested on: HCT-116
[4] = tested on: HCT-15
[5] = tested on: HL-60
[6] = tested on: MDA-MB-231
[7] = tested on: NCI-H226
[8] = tested on: NCI-H23
[9] = tested on: NCI-H460
[10] = tested on: NCI/ADR-RES
[11] = tested on: OVCAR-4
[12] = tested on: RPMI-8226
[13] = tested on: SF-295
[14] = tested on: SK-MEL-2
[15] = tested on: SK-MEL-5
[16] = tested on: SR
[17] = tested on: T47D
[18] = tested on: UACC-257

Row | Structure (SMILES) | GI50 [1] | GI50 [2] | GI50 [3] | GI50 [4] [µM] | GI50 [5] | GI50 [6] | GI50 [7] | GI50 [8] | GI50 [9] | GI50 [10] | GI50 [11] | GI50 [12] | GI50 [13] | GI50 [14] | GI50 [15] | GI50 [16] | GI50 [17] | GI50 [18]
1 | COC(=O)/C=C\C(C#N)(C#N)/N=C/c1ccccc1 | 17.8 µM (inactive) | 0.337 µM (active) | 1.77 µM (inactive) | 2.92 | 2.25 µM (inactive) | 15.6 µM (inactive) | 9.55 µM (inactive) | 7.35 µM (inactive) | 18.7 µM (inactive) | 2.88 µM (inactive) | 4.22 µM (inactive) | 0.573 µM (active) | 18.7 µM (inactive) | 16.7 µM (inactive) | 13.5 µM (inactive) | 0.897 µM (active) | 1.72 µM (inactive) | 5.36 µM (inactive)
2 | [N-]=[N+]=Nc1ccc2c(c1)Sc1ccccc1N2CCCCN1CCN(C(=O)CCNC(=O)Cc2ccc(C(=O)c3ccccc3)cc2)CC1 | 4.52 µM (inactive) | 1.79 µM (inactive) | 3.54 µM (inactive) | 2.64 | 2.54 µM (inactive) | 4.74 µM (inactive) | 13.6 µM (inactive) | 4.78 µM (inactive) | 3.72 µM (inactive) | 4.05 µM (inactive) | 3.48 µM (inactive) | 1.58 µM (inactive) | 3.78 µM (inactive) | 4.29 µM (inactive) | 2.11 µM (inactive) | 2.08 µM (inactive) | 5.36 µM (inactive) | 4.05 µM (inactive)
3 | COc1ccc(C(OCC2OC(n3ccc(NC(=O)c4ccccc4)nc3=O)C(O)C2O)(c2ccccc2)c2ccccc2)cc1 (stereo not drawn) | 4.06 µM (inactive) | 2.26 µM (inactive) | 1.75 µM (inactive) | 1.82 | 2.24 µM (inactive) | 2.13 µM (inactive) | 2.61 µM (inactive) | 1.32 µM (inactive) | 1.98 µM (inactive) | 2.37 µM (inactive) | 2.67 µM (inactive) | 2.42 µM (inactive) | 1.95 µM (inactive) | 3.33 µM (inactive) | 1.91 µM (inactive) | 2.39 µM (inactive) | 3.54 µM (inactive) | 8.39 µM (inactive)
4 | CC1(C)Oc2ccc3ccc(=O)oc3c2C(O)C1O (stereo not drawn) | 32.2 µM (inactive) | 31.7 µM (inactive) | 38.8 µM (inactive) | 41.9 | 33.3 µM (inactive) | 71.8 µM (inactive) | 48.3 µM (inactive) | 44.2 µM (inactive) | 40 µM (inactive) | 34 µM (inactive) | 39.5 µM (inactive) | 30.2 µM (inactive) | 36.1 µM (inactive) | > 100 µM (inactive) | 15.9 µM (inactive) | 59.4 µM (inactive) | 35.3 µM (inactive) | 29.4 µM (inactive)
5 | O=C(Nc1ccc(C(F)(F)F)cc1[N+](=O)[O-])c1cccnc1 | 6.75 µM (inactive) | 4.85 µM (inactive) | 7.24 µM (inactive) | 2.91 | 3.72 µM (inactive) | 17.4 µM (inactive) | 22.8 µM (inactive) | 33.2 µM (inactive) | 3.15 µM (inactive) | 6.9 µM (inactive) | 4.43 µM (inactive) | 5.08 µM (inactive) | 4.42 µM (inactive) | 4.21 µM (inactive) | 4.06 µM (inactive) | 1.01 µM (active) | > 100 µM (inactive) | 5.71 µM (inactive)
6 | O=C1CCSc2c(cnc3ccccc23)N1 | > 100 µM (inactive) | > 100 µM (inactive) | > 100 µM (inactive) | > 100 | > 100 µM (inactive) | > 100 µM (inactive) | 34.8 µM (inactive) | > 100 µM (inactive) | 89.7 µM (inactive) | > 100 µM (inactive) | 67.3 µM (inactive) | > 100 µM (inactive) | > 100 µM (inactive) | 80 µM (inactive) | > 100 µM (inactive) | > 100 µM (inactive) | > 100 µM (inactive) | > 100 µM (inactive)
7 | Cc1cc(O)nc2cc3oc4ccccc4c3cc12 | 7.64 µM (inactive) | 11.5 µM (inactive) | 27.5 µM (inactive) | > 61.2 | 17.6 µM (inactive) | 52 µM (inactive) | 15.7 µM (inactive) | > 68.5 µM (inactive) | 3.91 µM (inactive) | > 100 µM (inactive) | > 62.2 µM (inactive) | 37.9 µM (inactive) | > 100 µM (inactive) | > 100 µM (inactive) | 7.52 µM (inactive) | 5.96 µM (inactive) | > 100 µM (inactive) | > 50.2 µM (inactive)
8 | COc1cc2c(cc1OC)C(=O)/C(=C/c1ccc(Cl)cc1)CC2 | > 10 µM (inactive) | > 10 µM (inactive) | > 10 µM (inactive) | > 10 | > 10 µM (inactive) | > 10 µM (inactive) | > 10 µM (inactive) | > 10 µM (inactive) | > 10 µM (inactive) | > 10 µM (inactive) | > 10 µM (inactive) | > 10 µM (inactive) | > 10 µM (inactive) | > 10 µM (inactive) | > 10 µM (inactive) | > 10 µM (inactive) | > 10 µM (inactive) | > 10 µM (inactive)
9 | Cc1ccc(C(=O)N/N=C(\N=N\c2cccc(Cl)c2)c2ccc(N(CCC#N)CCC#N)cc2C)cc1 | > 100 µM (inactive) | 97.1 µM (inactive) | > 100 µM (inactive) | > 100 | 56.9 µM (inactive) | > 100 µM (inactive) | > 100 µM (inactive) | > 100 µM (inactive) | > 100 µM (inactive) | > 100 µM (inactive) | > 100 µM (inactive) | 91.8 µM (inactive) | > 100 µM (inactive) | > 100 µM (inactive) | > 100 µM (inactive) | > 100 µM (inactive) | 69 µM (inactive) | > 100 µM (inactive)
10 | CCOc1cc(NC(C)=O)ccc1C(=O)NNC(=O)c1ccccc1OC(C)=O | 6.76 µM (inactive) | 4.22 µM (inactive) | 3.59 µM (inactive) | 4.37 | 4.28 µM (inactive) | 4.42 µM (inactive) | 5.19 µM (inactive) | 18 µM (inactive) | 4.04 µM (inactive) | 17.7 µM (inactive) | 4.32 µM (inactive) | 3 µM (inactive) | 8.36 µM (inactive) | 24.3 µM (inactive) | 5.78 µM (inactive) | 1.05 µM (active) | 8.55 µM (inactive) | 4.92 µM (inactive)
11 | Nc1cccc(C2CCCc3c2[nH]c2ccccc32)c1 (stereo not drawn) | 17.5 µM (inactive) | 15.3 µM (inactive) | 13.4 µM (inactive) | 8.28 | 19.5 µM (inactive) | 15.8 µM (inactive) | 25.7 µM (inactive) | 19.1 µM (inactive) | 19.5 µM (inactive) | 17.7 µM (inactive) | 25.5 µM (inactive) | 19.1 µM (inactive) | 20.8 µM (inactive) | 17.5 µM (inactive) | 17.4 µM (inactive) | 9.08 µM (inactive) | 12.1 µM (inactive) | 23.9 µM (inactive)
12 | COC(=O)C1CN=CN1CCc1ccccc1 (stereo not drawn) | > 100 µM (inactive) | > 100 µM (inactive) | > 100 µM (inactive) | > 100 | > 100 µM (inactive) | > 100 µM (inactive) | > 100 µM (inactive) | > 100 µM (inactive) | > 100 µM (inactive) | > 100 µM (inactive) | > 100 µM (inactive) | > 100 µM (inactive) | > 100 µM (inactive) | > 100 µM (inactive) | > 100 µM (inactive) | > 100 µM (inactive) | > 100 µM (inactive) | > 100 µM (inactive)
13 | COc1ccc([S+]([O-])Cc2cc(OC)c(OC)c(OC)c2)cc1 (stereo not drawn) | 49.1 µM (inactive) | 41.3 µM (inactive) | 40.4 µM (inactive) | 30.4 | > 10 µM (inactive) | 84.5 µM (inactive) | > 100 µM (inactive) | 76.2 µM (inactive) | 33.2 µM (inactive) | 40.7 µM (inactive) | > 100 µM (inactive) | 42.2 µM (inactive) | 47.3 µM (inactive) | 38.1 µM (inactive) | 29.6 µM (inactive) | 37.8 µM (inactive) | > 100 µM (inactive) | > 100 µM (inactive)
14 | CCN1/C(=C/c2ccc3ccccc3[n+]2CC)C=Cc2ccccc21 | 0.764 µM (active) | 0.26 µM (active) | 0.509 µM (active) | 4.89 | 1.09 µM (active) | 1.77 µM (inactive) | 1.66 µM (inactive) | 0.551 µM (active) | 0.333 µM (active) | 21.9 µM (inactive) | 0.617 µM (active) | 0.19 µM (active) | 0.479 µM (active) | 0.687 µM (active) | 0.329 µM (active) | 0.164 µM (active) | 0.22 µM (active) | 0.18 µM (active)
15 | CN(C)Cc1cc(/N=N/c2ccc(Cl)cc2)ccc1O | 16 µM (inactive) | 17.8 µM (inactive) | 16.7 µM (inactive) | 15.1 | 13.5 µM (inactive) | 16.1 µM (inactive) | 14.6 µM (inactive) | 23 µM (inactive) | 13.8 µM (inactive) | 17.7 µM (inactive) | 16.5 µM (inactive) | > 10 µM (inactive) | 16.5 µM (inactive) | 21.3 µM (inactive) | 14.4 µM (inactive) | 16.4 µM (inactive) | 12.4 µM (inactive) | 18.7 µM (inactive)
16 | N#Cc1c(N)c2c(c(-c3ccccc3)c1-c1ccccc1)C(=O)N(N)C2=O | 94 µM (inactive) | 42.7 µM (inactive) | > 100 µM (inactive) | > 100 | 44 µM (inactive) | > 100 µM (inactive) | > 100 µM (inactive) | > 100 µM (inactive) | > 100 µM (inactive) | 56 µM (inactive) | > 100 µM (inactive) | 32.7 µM (inactive) | 89.3 µM (inactive) | > 100 µM (inactive) | 87.9 µM (inactive) | > 100 µM (inactive) | 49.4 µM (inactive) | > 100 µM (inactive)
